From US4309559A, “Sulphonamides useful as pesticides” (FBC Limited, priority 1977, dated 1982)
Where two headings read alike, the source gives them in different places.

Key:
[1] = tested on: barley powdery mildew Erysiphe graminis; assay: Barley powdery mildew control on barley plants; type: in vivo; details: 2000 ppm; soil and leaves; 10 days; controls less than 5%
[2] = tested on: potato blight, Phytophthora infestans; type: in vivo; details: 5 days, controls less than 5%

| Structure (SMILES) | % Control, barley powdery mildew [1] | % Control, potato blight ([2]; 125 ppm) | % Control, potato blight ([2]; 500 ppm) | % Control, potato blight ([2]; 2,000 ppm) |
| --- | --- | --- | --- | --- |
| Cc1cccc(C)c1N(CCCC#N)S(C)(=O)=O [Example 146] | 92% | – | – | – |
| CS(=O)(=O)N(CCCC#N)c1ccc(Cl)c(Cl)c1 [Example 147] | 96% | – | – | – |
| Cc1ccc(N(CCCC#N)S(C)(=O)=O)cc1C [Example 148] | 89% | – | – | – |
| CC(=O)CN(c1c(C)cccc1C)S(C)(=O)=O [Example 211, N-2-oxopropyl-2',6'-dimethyl-methanesulphonanilide] | – | 90% | 94% | 99% |
| COC(C)(CN(c1c(C)cccc1C)S(C)(=O)=O)OC [Example 224, N-(2,2-dimethoxypropyl)-2',6'-dimethyl-methanesulphonanilide] | – | – | 55% | 98% |
| Cc1cccc(C)c1N(CC1(C)OCCO1)S(C)(=O)=O [Example 231, N-[(2-methyl-1,3-dioxolan-2-yl)methyl]-2',6'-dimethylmethanesulphonanilide] | – | – | – | 98% |
